From PubChem BioAssay (NCI)
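Method: 48-hour compound exposure of cells in 96-well plates, five concentrations, linear interpolation of endpoints. TGI marks complete inhibition of growth.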 Where a SMILES comes first, the peptide text is derived from it. The star is where a group is joined. Cbz = O=C(OCc1ccccc1)*

Tests used:
Assay in all cases: inhibition of tumour cell growth, NCI panel, 48 h
[1] = test system: DU-145 prostate
[2] = test system: HCC-2998 colon
[3] = test system: UO-31 renal
[4] = test system: RXF 393 renal
[5] = test system: MDA-MB-231 breast
[6] = test system: SK-MEL-28 melanoma
[7] = test system: COLO 205 colon
[8] = test system: NCI-H522 lung
[9] = test system: SK-MEL-5 melanoma
[10] = test system: MDA-N
[11] = test system: SF-539 CNS
[12] = test system: RPMI-8226 leukemia
[13] = test system: OVCAR-5 ovarian
[14] = test system: KM12 colon
[15] = test system: SF-295 CNS
[16] = test system: CAKI-1 renal
[17] = test system: SNB-19 CNS
[18] = test system: ACHN renal
[19] = test system: PC-3 prostate
[20] = test system: SK-MEL-2 melanoma

Structure (SMILES) | TGI [1] [µM] | TGI [2] [µM] | TGI [3] [µM] | TGI [4] [µM] | TGI [5] [µM] | TGI [6] [µM] | TGI [7] [µM] | TGI [8] [µM] | TGI [9] [µM] | TGI [10] [µM] | TGI [11] [µM] | TGI [12] [µM] | TGI [13] [µM] | TGI [14] [µM] | TGI [15] [µM] | TGI [16] [µM] | TGI [17] [µM] | TGI [18] [µM] | TGI [19] [µM] | TGI [20] [µM]
O=C(c1ccccc1)N(CCCCNC(=O)C(F)(F)F)CCCNC(=O)C(F)(F)F | > 100 | > 100 | > 100 | > 100 | > 100 | > 100 | > 100 | > 100 | > 100 | > 100 | > 100 | > 100 | > 100 | > 100 | > 100 | > 100 | > 100 | > 100 | – | –
O=C1CCCCCCCCCCC1CN1CCOCC1 (stereo not drawn) | > 100 | > 100 | > 100 | > 100 | > 100 | > 100 | > 100 | > 100 | > 100 | > 100 | > 100 | > 100 | > 100 | > 100 | > 100 | – | > 100 | > 100 | > 100 | –
CC(C)=NOC(=O)OC[C@H]1O[C@@H](n2cnc3c(N)ncnc32)C(O)C1O (stereo partly drawn) | > 100 | > 100 | > 100 | > 100 | > 100 | > 100 | > 100 | > 100 | > 100 | > 100 | > 100 | > 100 | > 100 | > 100 | > 100 | – | > 100 | > 100 | > 100 | > 100
O=S1(=O)c2ccccc2N2C(c3ccccc3)=NOC2(c2ccccc2)CC1c1ccc(Br)cc1 (stereo not drawn) | > 100 | > 100 | > 100 | > 100 | > 100 | > 100 | > 100 | > 100 | > 100 | > 100 | > 100 | – | > 100 | > 100 | > 100 | – | > 100 | > 100 | > 100 | > 100
Cc1ccc(N=C2OP(=O)(Nc3ccc(C)cc3)Oc3ccccc32)cc1 (stereo not drawn) | > 100 | > 100 | > 100 | > 100 | > 100 | > 100 | > 100 | – | > 100 | > 100 | > 100 | – | > 100 | > 100 | > 100 | > 100 | > 100 | > 100 | > 100 | > 100
Cc1ccc2nc(CN(CCO)CCO)cc(=O)n2c1 | > 100 | > 100 | > 100 | – | > 100 | > 100 | > 100 | > 100 | – | > 100 | > 100 | – | > 100 | > 100 | > 100 | > 100 | > 100 | > 100 | > 100 | > 100
O=C1NC(=O)C(C(c2ccc([N+](=O)[O-])cc2)C2C(=O)NC(=O)NC2=O)C(=O)N1 | > 100 | – | > 100 | > 100 | > 100 | > 100 | > 100 | > 100 | > 100 | > 100 | – | > 100 | > 100 | > 100 | > 100 | > 100 | > 100 | > 100 | > 100 | > 100
CCOC(=O)/C(=C\c1cn(C(C)=O)c2ccccc12)P(C)(=O)OCC (stereo not drawn) | > 100 | 94.3 | > 100 | – | 81.7 | > 100 | > 100 | 67.2 | > 100 | > 100 | 45.1 | > 100 | > 100 | > 100 | > 100 | > 100 | > 100 | > 100 | > 100 | > 100
[C-]#[N+]C(=C\c1ccc(O)cc1)/C(=C/c1ccc(O)cc1)[N+]#[C-] | 7.23 | > 50.6 | – | 4.46 | 6.71 | > 22.4 | 56.6 | > 33.1 | 5.36 | 3.35 | – | > 95.2 | > 31.8 | > 22.3 | > 100 | 5.63 | > 100 | > 100 | > 26.7 | –
O=S(=O)(O)c1cc(S(=O)(=O)O)c2c(N=Nc3ccc(S(=O)(=O)O)c4ccccc34)c(O)ccc2c1 | > 100 | – | > 100 | > 100 | > 100 | > 100 | > 100 | > 100 | > 100 | > 100 | – | > 100 | > 100 | > 100 | > 100 | > 100 | > 100 | > 100 | > 100 | > 100
COc1ccc(N/N=C/C2=CC(C)(C)C(C#N)(C#N)C(O)=C2C#N)cc1 | > 100 | – | > 100 | > 100 | > 100 | > 100 | 49.8 | > 100 | > 100 | > 100 | > 100 | > 100 | > 100 | > 100 | > 100 | > 100 | > 100 | > 100 | > 100 | > 100
O=C1/C(=C/C=C/c2ccccc2)N=C(c2ccccc2)N1c1ccc(S(=O)(=O)Nc2nccs2)cc1 | > 100 | – | 29.9 | 30.1 | – | – | 35.5 | 36.6 | 54 | > 100 | 45.9 | 68.2 | > 100 | > 100 | > 100 | > 100 | > 100 | 34.5 | > 100 | 86.6
[N-]=[N+]=Nc1c(-c2ccccc2)c(=O)n(-c2ccccc2)c2ccccc12 | > 100 | > 100 | > 100 | > 100 | > 100 | > 100 | > 100 | 97.1 | – | > 100 | > 100 | > 100 | – | > 100 | > 100 | – | – | > 100 | > 100 | –
COC(=O)C(CC(C)C)NC(=O)C(CCCN=C(N)N)NC(=O)OCc1ccccc1 (stereo not drawn) (Cbz-Arg-Leu-OMe; configuration not given here) | > 100 | > 100 | > 100 | > 100 | > 100 | > 100 | > 100 | > 100 | > 100 | > 100 | – | > 100 | > 100 | > 100 | > 100 | > 100 | > 100 | > 100 | > 100 | –
COC(=O)CCC(=O)c1ccc2c(c1)CC1(C2)Cc2ccc(C(=O)CCC(=O)OC)cc2C1 | – | > 100 | > 100 | > 100 | > 100 | – | > 100 | > 100 | 61.5 | > 100 | > 100 | > 100 | > 100 | > 100 | > 100 | – | – | > 100 | > 100 | 61
CCCCc1nc(C)oc1C(C)C | > 100 | > 100 | > 100 | > 100 | > 100 | > 100 | > 100 | > 100 | > 100 | > 100 | > 100 | – | > 100 | > 100 | > 100 | > 100 | – | > 100 | > 100 | –
O=C1NC(=NCc2ccc(F)cc2)N/C1=C\c1ccccc1Cl | 46.8 | > 100 | – | 48.2 | 41.8 | 67.3 | 37.5 | 30.4 | 33.6 | 40.3 | > 100 | – | 41 | 53.9 | 35.8 | 70.8 | 39.7 | 49.1 | 38.8 | 33.3
CN(/N=C/c1ccc(Cl)c(Cl)c1)C1=NCCCCN1 | > 100 | 63.9 | – | – | > 100 | – | 37.2 | 33.7 | 27.8 | 42.2 | 61.1 | 64 | > 100 | 47.5 | > 100 | 82.7 | > 100 | > 100 | > 100 | 42.1
CC(=O)OC12CC[N+]3(C)CCCCC3C1=Nc1ccccc12 (stereo not drawn) | > 100 | – | > 100 | > 100 | > 100 | > 100 | > 100 | > 100 | > 100 | > 100 | > 100 | > 100 | > 100 | > 100 | > 100 | > 100 | > 100 | > 100 | > 100 | > 100
COc1ccc(/C=C2/SC(=Nc3ccccc3)N(NC(=O)Cc3ccccc3)C2=O)c(OC)c1 | > 100 | > 100 | > 100 | > 100 | > 100 | > 100 | > 100 | – | > 100 | > 100 | > 100 | > 100 | > 100 | > 100 | > 100 | – | > 100 | > 100 | – | > 100
O=C1c2cn[nH]c2N=C(Nc2ccccc2)C1N=Cc1ccc([N+](=O)[O-])cc1 (stereo not drawn) | > 10 | > 10 | > 10 | – | – | – | – | > 10 | > 10 | > 10 | > 10 | – | > 10 | > 10 | > 10 | – | > 10 | > 10 | > 10 | –
COc1ccc(C(=O)c2nc3ccccc3nc2N2CCN(c3ccccc3)CC2)cc1OC | > 100 | > 100 | > 100 | > 100 | – | > 100 | > 100 | > 100 | > 100 | > 100 | > 100 | > 100 | > 100 | > 100 | > 100 | > 100 | > 100 | > 100 | > 100 | > 100
O=C(O)c1ccccc1/C=C1/Cc2ccc3c(c2C1=O)CCC3 | > 100 | 72.1 | > 100 | > 100 | – | > 100 | 36.3 | > 100 | 46.2 | > 100 | 43.6 | 57.4 | > 100 | > 100 | > 100 | > 100 | > 100 | > 100 | > 100 | 44.9
Cc1c(C(=O)Nc2ccccc2)nnn1-c1ccnc2cc(C(F)(F)F)ccc12 | > 100 | > 100 | > 100 | > 100 | > 100 | > 100 | > 100 | > 100 | 52.6 | > 100 | > 100 | – | > 100 | > 100 | > 100 | > 100 | > 100 | > 100 | > 100 | > 100
C1=CCC[C@@H]2CN3CCCC/C=C\CCCC[C@H]4C[C@H](CN(CCCCCCCC1)C4)[C@H]2CC3 | > 50 | 14.4 | – | – | 16.4 | 14.7 | 16 | 17.7 | 16.3 | 16.2 | 14.9 | 16.7 | 23.7 | 15.6 | 16.4 | 18.2 | 22.2 | 17 | 41.2 | 15.9
CCOc1ccccc1Nc1ccc(N)cc1S(=O)(=O)O | > 100 | > 100 | > 100 | > 100 | > 100 | > 100 | – | > 100 | > 100 | > 100 | – | – | > 100 | > 100 | > 100 | > 100 | > 100 | > 100 | > 100 | > 100
